Test results reported in PMC9921273, “Omega-3 PUFAs as a Dietary Supplement in Senile Systemic Amyloidosis” (Nutrients, 2023).

Experiments:
[1] = biological target: T1, transthyretin (wt-TTR) (Homo sapiens, UniProt P02766); assay: ANS fluorescence displacement binding assay (also turbidimetric and ThT fibril formation assays); set-up: wt-TTR tetramer, human plasma
[2] = biological target: T1, transthyretin (wt-TTR); assay: ANS fluorescence displacement binding assay (also turbidimetric fibril formation assay); set-up: wt-TTR tetramer, human plasma

Structure (SMILES) | IC50 [1] | IC50 [2]
CC/C=C\C/C=C\C/C=C\C/C=C\C/C=C\C/C=C\CCC(=O)O [DHA, docosahexaenoic acid] | 12.1 ± 0.07 µM | –
CC/C=C\C/C=C\C/C=C\C/C=C\C/C=C\CCCC(=O)O [EPA, eicosapentaenoic acid] | – | 13 ± 0.08 µM
